Consider 44 molecules from patent US20240368096A1 (Enanta Pharmaceuticals, Inc., priority 2022, published 2024).

The structures appear in SMILES notation.

The test has as its system HBV. The experiment in a line: HBV infection in HepG2-NTCP cells (HBeAg AlphaLISA in supernatants). In kind it is cell-based. The note with it: Hepatitis B virus, 192 h; HBV infection of HepG2-NTCP cells; HBeAg in supernatants at day 8 post infection; read-out: Cellular EC50. The gist of the method: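 Readout was day-8 supernatant HBeAg by AlphaLISA, with EC50 set against DMSO controls and binned A<0.1 μM, B 0.1-1 μM, C>1 μM. Compounds were added 2 h before HBV (2000 GE/cell, 4% PEG, 0.5% DMSO) to HepG2-NTCP A3 cells; from day 1 medium held 2.5% DMSO.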
On the technique in general: Alpha assays give light when donor and acceptor beads are brought close together.
Take `CN1[C@H](CC2CC2)CN(c2ccccc2)c2cc(Cl)c(-c3ccc(F)c(C(=O)O)c3)cc2S1(=O)=O` [Example 73]: the concentration giving a half-maximal response (EC50) is less than 100 nM.
In the case of `CN1C[C@@H](C2CCCCC2)N(C)S(=O)(=O)c2cc(-c3ccc(F)c(C(=O)O)c3)c(-c3ccccc3F)cc21` [Example 581] it was 100 to 1000 nM; in that of `CN1[C@H](C2CCCCC2)CN(c2ccccc2)c2cc(OCc3cscc3Cl)c(-c3cc(F)c(C(=O)O)s3)cc2S1(=O)=O` [Example 494], less than 100 nM.
Regarding `O=C(O)c1cc(-c2cc3c(cc2F)N(c2ccccc2)CC2CC4(CC4)CN2S3(=O)=O)ccc1F` (centres unmarked) [Example 7], the EC50 lay within 100 to 1000 nM.
The figure for `CC(=O)N1CCN(c2cc3c(cc2-c2ccc(F)c(C(=O)O)c2)S(=O)(=O)N(C)[C@H](C2CCCCC2)CN3c2ccccc2)CC1` [Example 535] is 100 to 1000 nM.
In the case of `Cc1ccc(Cl)c(Oc2cc3c(cc2-c2ccc(F)c(C(=O)O)c2)S(=O)(=O)N(C)[C@H](CC(C)C)CN3c2ccccc2)c1` [Example 436] it was less than 100 nM; in that of `CN1[C@H](C2CCCCC2)CN(c2ccccc2)c2cc(Cl)c(-c3cc(C(=O)O)ncn3)cc2S1(=O)=O` [Example 140, (R)-6-(7-chloro-3-cyclohexyl-2-methyl-1,1-dioxido-5-phenyl-2,3,4,5-tetrahydrobenzo[f][1,2,5]thiadiazepin-8-yl)pyrimidine-4-carboxylic acid], 100 to 1000 nM; in that of `CN1[C@H](C2CCCCC2)CN(c2cccc(OC(F)(F)F)c2)c2cc(Cl)c(-c3ccc(F)c(C(=O)O)c3)cc2S1(=O)=O` [Example 293], less than 100 nM.
In the case of `CC(C)NC(=O)N1CCC(Oc2cc3c(cc2-c2ccc(F)c(C(=O)O)c2)S(=O)(=O)N(C)[C@H](C2CCCCC2)CN3c2ccccc2)CC1` [Example 400, (R)-5-(3-cyclohexyl-7-((1-(isopropylcarbamoyl)piperidin-4-yl)oxy)-2-methyl-1,1-dioxido-5-phenyl-2,3,4,5-tetrahydrobenzo[f][1,2,5]thiadiazepin-8-yl)-2-fluorobenzoic acid] it was 100 to 1000 nM; in that of `CCOC(=O)Nc1cc(-c2cc3c(cc2F)N(c2ccccc2)C[C@@H](C2CCCCC2)N(C)S3(=O)=O)sc1C(=O)O` [Example 265, (R)-5-(3-cyclohexyl-7-fluoro-2-methyl-1,1-dioxido-5-phenyl-2,3,4,5-tetrahydrobenzo[f][1,2,5]thiadiazepin-8-yl)-3-((ethoxycarbonyl)amino)thiophene-2-carboxylic acid], less than 100 nM.
Regarding `CN1[C@H](C2CCCCC2)CN(c2ccc(C(F)F)cc2)c2cc(Cl)c(-c3ccc(F)c(C(=O)O)c3)cc2S1(=O)=O` [Example 303], the EC50 fell in the range of 100 to 1000 nM.
The figure for `COCC(C)(C)COC(=O)Nc1cc(-c2cc3c(cc2Cl)N(c2ccccc2)C[C@@H](C2CCCCC2)N(C)S3(=O)=O)sc1C(=O)O` [Example 260] is 100 to 1000 nM.
Take `CN1[C@H](C2CCCCC2)CN(c2ccccc2)c2cc(OCCOC3CC3)c(-c3cc(F)c(C(=O)O)s3)cc2S1(=O)=O` [Example 496]: the EC50 was less than 100 nM.
Take `COc1cc2c(cc1-c1cccc(C(=O)O)c1)S(=O)(=O)N(C)[C@@H](Cc1ccc(Cl)cc1)CN2c1ccccc1` [Example 17]: the EC50 was greater than 1000 nM.
In the case of `CN1[C@H](C2CCCCC2)CN(c2ccccc2)c2cc(Cl)c(-c3ncc(C(=O)O)o3)cc2S1(=O)=O` [Example 132, (R)-2-(7-chloro-3-cyclohexyl-2-methyl-1,1-dioxido-5-phenyl-2,3,4,5-tetrahydrobenzo[f][1,2,5]thiadiazepin-8-yl)oxazole-5-carboxylic acid] it was 100 to 1000 nM.
The figure for `Cc1cscc1COc1cc2c(cc1-c1ccc(F)c(C(=O)O)c1)S(=O)(=O)N(C)[C@H](C1CCCCC1)CN2c1ccccc1` [Example 338] is less than 100 nM; for `CC(C)C[C@@H]1CN(c2ccccc2)c2cc(OCCN(C)C)c(-c3ccc(F)c(C(=O)O)c3)cc2S(=O)(=O)N1C` [Example 451] it is greater than 1000 nM.
For `CN1[C@H](C2CCC2)CN(c2ccccc2)c2cc(Cl)c(-c3cccc(P(=O)(O)O)c3)cc2S1(=O)=O` [Example 234], the half-maximal effective concentration (EC50) lay within 100 to 1000 nM.
In the case of `CC(Oc1cc2c(cc1-c1cc(F)c(C(=O)O)s1)S(=O)(=O)N(C)[C@H](C1CCCCC1)CN2c1ccccc1)c1nccs1` (some centres unmarked) [Example 502] it was 100 to 1000 nM; in that of `CCCC[C@@H]1CN(c2ccccc2)c2cc(Oc3ccc(Cl)cc3)c(-c3ccc(F)c(C(=O)O)c3)cc2S(=O)(=O)N1C` [Example 418], less than 100 nM; in that of `CN1[C@@H](CC2CC2)CN(c2ccccc2)c2cc(Cl)c(-c3ccc(F)c(C(=O)O)c3)cc2S1(=O)=O` [Example 42], greater than 1000 nM.
As for `CN1[C@H](C2CCCCC2)CN(c2ccccc2)c2cc(OCc3cccs3)c(-c3ccc(F)c(C(=O)O)c3)cc2S1(=O)=O` [Example 335], the EC50 was less than 100 nM.
The figure for `CN1[C@H](c2cccc(F)c2)CN(c2ccccc2)c2cc(Cl)c(-c3ccc(F)c(C(=O)O)c3)cc2S1(=O)=O` [Example 55] is 100 to 1000 nM; for `CCCCCCCC[C@@H]1CN(c2ccccc2)c2cc(Cl)c(-c3cc(F)c(F)c(C(=O)O)c3)cc2S(=O)(=O)N1C` [Example 83] it is greater than 1000 nM; for `CO[C@H]1C[C@H](N2C[C@@H](CC(C)C)N(C)S(=O)(=O)c3cc(-c4ccc(F)c(C(=O)O)c4)c(Oc4ccccc4F)cc32)C1` [Example 472] it is 100 to 1000 nM.
On to `CCCC[C@@H]1CN(c2ccccc2)c2cc(N3CCCC3)c(-c3ccc(F)c(C(=O)O)c3)cc2S(=O)(=O)N1C` [Example 520, (R)-5-(3-butyl-2-methyl-1,1-dioxido-5-phenyl-7-(pyrrolidin-1-yl)-2,3,4,5-tetrahydrobenzo[f][1,2,5]thiadiazepin-8-yl)-2-fluorobenzoic acid], for which the EC50 is 100 to 1000 nM.
Consider `CCOc1ccc(N2C[C@@H](C3CCCCC3)N(C)S(=O)(=O)c3cc(-c4ccc(F)c(C(=O)O)c4)c(Cl)cc32)cc1` [Example 309], for which the EC50 fell in the range of 100 to 1000 nM.
In the case of `CC(C)C[C@@H]1CN(c2ccccc2)c2cc(Cl)c(-c3ccc4onc(N)c4c3)cc2S(=O)(=O)N1C` [Example 170] it was greater than 1000 nM; in that of `CCO[C@@H](C)[C@@H]1CN(c2ccccc2)c2cc(Cl)c(-c3ccc(F)c(C(=O)O)c3)cc2S(=O)(=O)N1C` [Example 89], 100 to 1000 nM; in that of `CC(C)COC(=O)Nc1c(F)cc(-c2cc3c(cc2Cl)N(c2ccccc2)C[C@@H](C2CCCCC2)N(C)S3(=O)=O)cc1C(=O)O` [Example 277], less than 100 nM.
Regarding `CC(C)C[C@@H]1CN(c2ccccc2)c2cc(Nc3ccncc3)c(-c3ccc(Cl)c(C(=O)O)c3)cc2S(=O)(=O)N1C` [Example 550], the EC50 was greater than 1000 nM.
As to `CN1[C@H](C2CCC(F)(F)CC2)CN(c2ccccc2)c2cc(Cl)c(-c3ccc(Cl)c(C(=O)O)c3)cc2S1(=O)=O` [Example 29], the EC50 was 100 to 1000 nM.
For the molecule `CC(C)CS(=O)(=O)Nc1cc(-c2cc3c(cc2Cl)N(c2ccccc2)C[C@@H](C2CCCCC2)N(C)S3(=O)=O)sc1C(=O)O` [Example 276], the EC50 was less than 100 nM.
Consider `CN1[C@H](C2CCCCC2)CN(c2ccccc2)c2cc(OCc3ccccc3)c(-c3cc(F)c(C(=O)O)s3)cc2S1(=O)=O` [Example 508], for which the EC50 is less than 100 nM.
For the molecule `CC(C)CC1CN(c2ccccc2)c2cc(N3CCCC3)c(-c3cccc(C(=O)O)c3)cc2S(=O)(=O)N1C` (centres unmarked) [Example 544], the EC50 was in the range of 100 to 1000 nM.
In the case of `CC(C)C[C@@H]1CN(c2ccccc2)c2cc(Cl)c(-c3ccc(C#N)c(C(=O)O)c3)cc2S(=O)(=O)N1C` [Example 187] it was 100 to 1000 nM.
In the case of `CCCCCCOc1cc2c(cc1-c1ccc(F)c(C(=O)O)c1)S(=O)(=O)N(C)[C@H](C1CCCCC1)CN2c1ccccc1` [Example 352] it was less than 100 nM; in that of `CCCCOc1cccc(N2C[C@@H](C3CCCCC3)N(C)S(=O)(=O)c3cc(-c4ccc(F)c(C(=O)O)c4)c(Cl)cc32)c1` [Example 310], less than 100 nM.
In the case of `CN1[C@H](C2CCCCC2)CN(c2ccccc2)c2cc(Cl)c(-c3cccc(C(=O)O)c3Cl)cc2S1(=O)=O` [Example 152, (R)-2-chloro-3-(7-chloro-3-cyclohexyl-2-methyl-1,1-dioxido-5-phenyl-2,3,4,5-tetrahydrobenzo[f][1,2,5]thiadiazepin-8-yl)benzoic acid], the EC50 is greater than 1000 nM.
In the case of `CN1[C@H](C2CCCCC2)CN(c2ccccc2)c2cc(OCc3cn(C)cn3)c(-c3ccc(F)c(C(=O)O)c3)cc2S1(=O)=O` [Example 389, (R)-5-(3-cyclohexyl-2-methyl-7-((1-methyl-1H-imidazol-4-yl)methoxy)-1,1-dioxido-5-phenyl-2,3,4,5-tetrahydrobenzo[f][1,2,5]thiadiazepin-8-yl)-2-fluorobenzoic acid] it was 100 to 1000 nM.
In the case of `COCCOc1cc2c(cc1-c1cc(NC(=O)OCCOC(C)C)c(C(=O)O)s1)S(=O)(=O)N(C)[C@H](C1CCCCC1)CN2c1ccccc1` [Example 518, (R)-5-(3-cyclohexyl-7-(2-methoxyethoxy)-2-methyl-1,1-dioxido-5-phenyl-2,3,4,5-tetrahydrobenzo[f][1,2,5]thiadiazepin-8-yl)-3-(((2-isopropoxyethoxy)carbonyl)amino)thiophene-2-carboxylic acid] it was less than 100 nM; in that of `COCCOc1cc2c(cc1-c1cc(NC(=O)OCC(C)C)c(C(=O)O)s1)S(=O)(=O)N(C)[C@H](C1CCCCC1)CN2c1ccccc1` [Example 516, (R)-5-(3-cyclohexyl-7-(2-methoxyethoxy)-2-methyl-1,1-dioxido-5-phenyl-2,3,4,5-tetrahydrobenzo[f][1,2,5]thiadiazepin-8-yl)-3-((isobutoxycarbonyl)amino)thiophene-2-carboxylic acid], less than 100 nM.
The figure for `COCCC(=O)N1CCC(c2cc3c(cc2-c2ccc(F)c(C(=O)O)c2)S(=O)(=O)N(C)[C@H](C2CCCCC2)CN3c2ccccc2)CC1` [Example 600] is greater than 1000 nM.
As for `CC(C)C[C@@H]1CN(c2ccccc2)c2cc(Cl)c(-c3ccc(-c4ccoc4)c(C(=O)O)c3)cc2S(=O)(=O)N1C` [Example 216], the EC50 lay in the range of 100 to 1000 nM.

In general, EC50 refers to the concentration that produces a half-maximal response.
